Data published in patent US8119635B2, “Diazabicyclic central nervous system active agents” (Abbott Laboratories, priority 2000, dated 2012).
pKi: −log10 of the molar value. Counter-ions that a name gives are not always drawn. Like-named read-outs stand apart in the source and are kept apart here.

Assays:
[1] = target: T1, neuronal nicotinic acetylcholine receptors (Rattus norvegicus, UniProt P09483+P12390); experiment: Binding of [3H]-cytisine to neuronal nicotinic acetylcholine receptors, crude synaptic membranes from whole rat brain
T1 construct: crude synaptic membrane preparations from whole rat brain; from tissue; host or cells: whole rat brain, crude synaptic membranes
T1 sequence (P09483 31-630): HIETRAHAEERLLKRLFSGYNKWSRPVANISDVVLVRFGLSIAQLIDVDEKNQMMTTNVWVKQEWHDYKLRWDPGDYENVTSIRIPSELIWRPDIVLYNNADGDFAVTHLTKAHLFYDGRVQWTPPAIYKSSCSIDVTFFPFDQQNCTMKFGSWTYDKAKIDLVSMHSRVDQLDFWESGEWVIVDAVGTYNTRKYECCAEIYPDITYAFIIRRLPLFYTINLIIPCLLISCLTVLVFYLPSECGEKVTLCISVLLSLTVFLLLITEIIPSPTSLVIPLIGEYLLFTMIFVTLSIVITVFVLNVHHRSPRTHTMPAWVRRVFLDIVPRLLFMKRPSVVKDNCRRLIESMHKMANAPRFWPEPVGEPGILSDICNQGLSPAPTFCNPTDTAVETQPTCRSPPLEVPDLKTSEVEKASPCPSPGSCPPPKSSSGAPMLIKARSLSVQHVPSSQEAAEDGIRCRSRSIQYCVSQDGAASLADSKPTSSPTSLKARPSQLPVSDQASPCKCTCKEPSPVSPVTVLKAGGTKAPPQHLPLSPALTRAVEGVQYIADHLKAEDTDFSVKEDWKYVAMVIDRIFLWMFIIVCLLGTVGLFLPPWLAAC
T1 sequence (P12390 25-500): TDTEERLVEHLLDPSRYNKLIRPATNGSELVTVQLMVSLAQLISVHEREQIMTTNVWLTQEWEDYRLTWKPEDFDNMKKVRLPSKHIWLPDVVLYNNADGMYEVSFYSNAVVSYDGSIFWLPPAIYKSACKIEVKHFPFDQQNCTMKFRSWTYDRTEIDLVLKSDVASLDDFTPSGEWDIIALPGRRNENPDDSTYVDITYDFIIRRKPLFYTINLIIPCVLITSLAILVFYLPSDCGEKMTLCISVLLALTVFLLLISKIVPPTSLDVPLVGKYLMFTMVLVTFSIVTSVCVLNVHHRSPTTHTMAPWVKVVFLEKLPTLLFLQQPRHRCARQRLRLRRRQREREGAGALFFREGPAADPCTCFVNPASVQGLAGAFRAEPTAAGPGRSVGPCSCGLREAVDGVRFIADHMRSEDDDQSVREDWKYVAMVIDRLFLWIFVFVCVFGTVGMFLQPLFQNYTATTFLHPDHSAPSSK
Method: The In Vitro protocols for determination of nicotinic acetylcholine channel receptor binding potencies of ligands were determined as follows.
Washed membranes were stored at −80° C. prior to use. Frozen aliquots were slowly thawed and resuspended in 20 volumes of buffer (containing: 120 mM NaCl, 5 mM KCl, 2 mM MgCl2, 2 mM CaCl2 and 50 mM Tris-Cl, pH 7.4 @[…]). After centrifuging at 20,000×g for 15 minutes, the pellets were resuspended in 30 volumes of buffer.
The test compounds were dissolved in water to make 10 mM stock solutions. Each solution was then diluted (1:100) with buffer (as above) and further taken through seven serial log dilutions to produce test solutions from 10^−5 to 10^−11 M.
Samples were incubated for 60 minutes at 4° C., then rapidly filtered through Whatman GF/B filters presoaked in 0.5% polyethyleneimine using 3×4 mL of ice-cold buffer. The filters are counted in 4 mL of Ecolume® (ICN). Nonspecific binding was determined in the presence of 10 μM (−)-nicotine and values were expressed as a percentage of total binding. IC50 values were determined with the RS-1 (BBN) nonlinear least squares curve-fitting program and IC50 values were converted to Ki values using the Cheng and Prusoff correction (Ki=IC50/(1+[ligand]/Kd of ligand).

Male Sprague-Dawley rats = experiment: Formalin test (analgesia); assay type: in vivo; settings: Rattus norvegicus, ip, intraperitoneally 5 minutes before injection of 50 μL 5% formalin into rear paw, nocifensive behaviors, read-out: (MED) minimally effective dose, formalin test
Method: Another in vivo protocol utilized to determine the effectiveness of nicotinic acetylcholine receptor ligands as analgesic agents was the formalin test.
Male Sprague-Dawley rats (Charles River, Portage, Mich.) weighing 200 to 400 grams were used for all experiments. After a 20 minute period of acclimation to individual cages, 50 μL of a 5% formalin solution was injected subcutaneous into the dorsal aspect of one of the rear paws and the rats were then returned to the clear observation cages suspended above mirror panels. […] Phase 1 of the formalin test was defined as the period of time immediately after injection of formalin until 10 minutes after the formalin injection (i.e., 0-10 minutes after formalin). Phase 2 was defined as the 20 minute period from 30 to 50 minutes after formalin injection. The investigator recorded nocifensive behaviors in the injected paw of four animals during the session by observing each animal for one 15 second observation period during each 1 minute interval. Nocifensive behaviors recorded included flinching, licking or biting the injected paw. In dose-response studies, the test compound (or saline) was administered intraperitoneally 5 minutes before injection of formalin.

[2] = [3H]-CYT 1.25 nM, whole rat brain membranes, 60 minutes at 4° C., IC50 converted to Ki by Cheng and Prusoff correction, read-out: Average Ki

Row | SMILES | pKi [1] | minimal effective dose (Male Sprague-Dawley rats) | pKi [1, 2]
1 | c1cncc(N2C[C@@H]3CN[C@@H]3C2)c1 (relative stereo) [Example 38, (cis)-3-(3-pyridinyl)-3,6-diazabicyclo[3.2.0]heptane bis(4-methylbenzenesulfonate)] | 9.80 | > 6.2 µmol/kg | –
2 | c1cncc(N2C[C@@H]3CCNC[C@@H]32)c1 (relative stereo) [Example 44, (cis)-8-(3-pyridinyl)-3,8-diazabicyclo[4.2.0]octane bis(4-methylbenzenesulfonate)] | 9.64 | 6.2 µmol/kg | –
3 | N#Cc1cncc(N2CC[C@H]3CN[C@H]3C2)c1 (relative stereo) [Example 62, (cis)-5-[3,8-diazabicyclo[4.2.0]oct-3-yl]nicotinonitrile fumarate] | 10.00 | 0.19 µmol/kg | –
4 | OCc1cc(N2C[C@H]3CCN[C@H]3C2)cnc1Br [Example 64, [5-((3aR,6aR)-hexahydropyrrolo[3,4-b]pyrrol-5(1H)-yl)-2-bromo-3-pyridinyl]methanol fumarate] | 8.96 | > 19 µmol/kg | –
5 | Brc1cncc(N2C[C@@H]3CNC[C@@H]32)c1 [Example 71, (1S,5R)-6-(5-bromo-3-pyridinyl)-3,6-diazabicyclo[3.2.0]heptane] | 8.82 | > 19 µmol/kg | –
6 | N#Cc1cncc(N2C[C@H]3CNC[C@H]32)c1 [Example 74, 5-[(1R,5S)-3,6-diazabicyclo[3.2.0]hept-6-yl]nicotinonitrile bis(4-methylbenzenesulfonate)] | 8.49 | 1.9 µmol/kg | –
7 | N#Cc1cc(N2C[C@H]3CNC[C@H]32)cnc1Br [Example 76, 2-bromo-5-[(1R,5S)-3,6-diazabicyclo[3.2.0]hept-6-yl]nicotinonitrile fumarate] | 9.55 | 1.9 µmol/kg | –
8 | Brc1cncc(N2C[C@H]3CNC[C@H]32)c1 [Example 53, (1R,5S)-6-(5-bromo-3-pyridinyl)-3,6-diazabicyclo[3.2.0]heptane fumarate] | 8.51 | > 19 µmol/kg | –
9 | COCc1cc(N2C[C@H]3CCN[C@H]3C2)cnc1Br [Example 67, (3aR,6aR)-5-[6-bromo-5-(methoxymethyl)-3-pyridinyl]octahydropyrrolo[3,4-b]pyrrole fumarate] | 9.00 | 19 µmol/kg | –
10 | COc1cncc(N2C[C@H]3CNC[C@H]32)c1 [Example 86, (1R,5S)-6-(5-methoxy-3-pyridinyl)-3,6-diazabicyclo[3.2.0]heptane 4-methylbenzenesulfonate] | 9.12 | > 19 µmol/kg | –
11 | Brc1cncc(N2C[C@H]3CCN[C@H]3C2)c1 [Example 36, (3aR,6aR)-5-(5-bromo-3-pyridinyl)octahydropyrrolo[3,4-b]pyrrole dihydrochloride] | 9.77 | 6.2 µmol/kg | –
12 | C#Cc1cncc(N2C[C@H]3CCN[C@H]3C2)c1 [Example 35, (3aR,6aR)-5-(5-ethynyl-3-pyridinyl)octahydropyrrolo[3,4-b]pyrrole hydrochloride dihydrochloride] | 9.89 | 1.9 µmol/kg | –
13 | c1cncc(N2C[C@H]3CNC[C@H]32)c1 [Example 52, (1R,5S)-6-(3-pyridinyl)-3,6-diazabicyclo[3.2.0]heptane fumarate] | 8.89 | 19 µmol/kg | –
14 | N#Cc1cncc(N2C[C@H]3CCN[C@H]3C2)c1 [Example 37, 5-((3aR,6aR)-hexahydropyrrolo[3,4-b]pyrrol-5(1H)-yl)nicotinonitrile] | 8.92 | 6.2 µmol/kg | –
15 | Cc1cc(N2C[C@H]3CCN[C@H]3C2)cnc1Br [Example 60, (3aR,6aR)-5-(6-bromo-5-methyl-3-pyridinyl)octahydropyrrolo[3,4-b]pyrrole dihydrochloride] | 9.96 | 0.62 µmol/kg | –
16 | CCc1cncc(N2C[C@H]3CCN[C@H]3C2)c1 [Example 63, (3aR,6aR)-5-(5-ethyl-3-pyridinyl)octahydropyrrolo[3,4-b]pyrrole] | 9.25 | > 19 µmol/kg | –
17 | c1cncc(N2CC3CNCC32)c1 (stereo not drawn) [Example 40, (cis)-6-(3′-pyridinyl)-3,6-diazabicyclo[3.2.0]heptane fumarate] | 8.21 | 1.9 µmol/kg | –
18 | Clc1ccc(N2CC[C@H]3CN[C@H]3C2)cn1 (relative stereo) [Example 42, (cis)-3-(6-chloro-3-pyridinyl)-3,8-diazabicyclo[4.2.0]octane bis(4-methylbenzenesulfonate)] | 10.52 | – | –

Row | SMILES | pKi [1] | minimal effective dose (Male Sprague-Dawley rats) | pKi [1, 2]
19 | Clc1ccc(N2C[C@H]3CNC[C@H]32)cn1 [Example 57, (1R,5S)-6-(6-chloro-3-pyridinyl)-3,6-diazabicyclo[3.2.0]heptane fumarate] | 8.92 | – | –
20 | c1cncc(N2CC[C@@H]3CNC[C@@H]32)c1 [Example 75, (3aR,6aR)-1-(3-pyridinyl)octahydropyrrolo[3,4-b]pyrrole fumarate] | 8.16 | – | –
21 | c1cncc(N2CC[C@H]3CNC[C@H]32)c1 [Example 78, (3aS,6aS)-1-(3-pyridinyl)octahydropyrrolo[3,4-b]pyrrole dihydrochloride] | 7.60 | – | –
22 | Clc1ccc(N2CC[C@@H]3CNC[C@@H]32)cn1 [Example 73, (3aR,6aR)-1-(6-chloro-3-pyridinyl)octahydropyrrolo[3,4-b]pyrrole fumarate] | 7.62 | – | –
23 | Cc1cc(N2C[C@@H]3CCNC[C@@H]32)cnc1Cl [Example 90, (1R,6S)-8-(6-chloro-5-methyl-3-pyridinyl)-3,8-diazabicyclo[4.2.0]octane fumarate] | 10.40 | – | –
24 | Clc1ccc(N2CC[C@H]3CNC[C@H]32)cn1 [Example 77, (3aS,6aS)-1-(6-chloro-3-pyridinyl)octahydropyrrolo[3,4-b]pyrrole fumarate] | 7.72 | – | –
25 | c1cncc(N2C[C@H]3CCNC[C@H]32)c1 [Example 91, (1S,6R)-8-(3-pyridinyl)-3,8-diazabicyclo[4.2.0]octane 4-methylbenzenesulfonate] | – | – | 8.96
26 | c1cncc(N2C[C@@H]3CCN[C@@H]3C2)c1 [Example 30, (3aS,6aS)-5-(3-pyridinyl)octahydropyrrolo[3,4-b]pyrrole 4-methylbenzenesulfonate] | – | – | 8.54
27 | c1cncc(N2CC[C@@H]3CCN[C@@H]3C2)c1 (relative stereo) [Example 39, (cis)-6-(3-pyridinyl)octahydro-1H-pyrrolo[2,3-c]pyridine dihydrochloride] | 9.27 | – | –
28 | c1cncc(N2C[C@@H]3CCNC[C@@H]32)c1 [Example 92, (1R,6S)-8-(3-pyridinyl)-3,8-diazabicyclo[4.2.0]octane 4-methylbenzenesulfonate] | – | – | 9.92
29 | Clc1ccc(N2C[C@H]3CN[C@H]3C2)cn1 [Example 80, (1R,5R)-3-(6-chloro-3-pyridinyl)-3,6-diazabicyclo[3.2.0]heptane fumarate] | 9.77 | – | –
30 | COc1cncc(N2C[C@@H]3CCN[C@@H]3C2)c1 [Example 32, (3aS,6aS)-5-(5-methoxy-3-pyridinyl)octahydropyrrolo[3,4-b]pyrrole 4-methylbenzenesulfonate] | 8.28 | – | –
31 | COc1cc(N2C[C@H]3CNC[C@H]32)cnc1Br [Example 95, (1R,5S)-6-(6-bromo-5-methoxy-3-pyridinyl)-3,6-diazabicyclo[3.2.0]heptane 4-methylbenzenesulfonate] | 9.92 | – | –
32 | [N-]=[N+]=Nc1cncc(N2C[C@H]3CNC[C@H]32)c1 [Example 96, (1R,5S)-6-(5-azido-3-pyridinyl)-3,6-diazabicyclo[3.2.0]heptane fumarate] | 8.72 | – | –
33 | N#Cc1cncc(N2C[C@H]3CCNC[C@H]32)c1 [Example 61, 5-[(1S,6R)-3,8-diazabicyclo[4.2.0]oct-8-yl]nicotinonitrile fumarate] | 8.60 | – | –
34 | Clc1ccc(N2C[C@H]3CNC[C@H]32)cn1 (relative stereo) [Example 46, (cis)-6-(6-chloro-3-pyridinyl)-3,6-diazabicyclo[3.2.0]heptane fumarate] | 9.14 | – | –
35 | c1cncc(N2CC[C@H]3NC[C@H]32)c1 [Example 18, (1R,5R)-2-(3-pyridinyl)-2,6-diazabicyclo[3.2.0]heptane bis(4-methylbenzenesulfonate)] | – | – | 6.81
36 | Clc1cc(N2C[C@H]3CCNC[C@H]32)cnc1Cl [Example 93, (1S,6R)-8-(5,6-dichloro-3-pyridinyl)-3,8-diazabicyclo[4.2.0]octane 4-methylbenzenesulfonate] | – | – | 9.52
